Laboratory results reported in BindingDB's records for doi:10.1016/S0960-894X(01)80136-0 (1994).

Test: Apparent inhibition constant of the FKBP […] isomerase (PPIase) activity

Row | Ki [µM] | Structure (SMILES)
1 | 30 | CC1(C)COC(=O)CCCCCCCCCOC(=O)[C@@H]2CCCCN2C(=O)C1=O
2 | 2900 | CC1(C)COC(=O)CCCOC(=O)C2CCCCN2C(=O)C1=O (stereo not given) [7,7-Dimethyl-octahydro-9,14-dioxa-4a-aza-benzocyclotridecene-5,6,10,15-tetraone]
3 | 90 | CC1(C)COC(=O)CCCCCCCCCOC(=O)C2CCCCN2C(=O)C1=O (stereo not given) [7,7-Dimethyl-tetradecahydro-9,20-dioxa-4a-aza-benzocyclononadecene-5,6,10,21-tetraone]
4 | 190 | CC1(C)COC(=O)CCCCCCCCCCC(CCC2CCCCC2)OC(=O)C2CCCCN2C(=O)C1=O (stereo not given) [21-(2-Cyclohexyl-ethyl)-7,7-dimethyl-hexadecahydro-9,22-dioxa-4a-aza-benzocyclohenicosene-5,6,10,23-tetraone]
5 | 11000 | CC1(C)COC(=O)CCCCCCCCCCCCCCCOC(=O)C2CCCCN2C(=O)C1=O (stereo not given) [7,7-Dimethyl-icosahydro-9,26-dioxa-4a-aza-benzocyclopentacosene-5,6,10,27-tetraone]
